Data published in US20210255193A1, “LYSINE REACTIVE PROBES AND USES THEREOF” (The Scripps Research Institute, priority 2017, published 2021).

What was measured:
Experiment in all cases: competitive isoTOP-ABPP
Format in all cases: binding
[1] = target: T1, CNOT4 CCR4-NOT transcription complex subunit 4 (Homo sapiens, UniProt O95628); settings: for isoTOP-ABPP ratio (R) at liganded lysine O95628_K134: sol, 231
T1 construct: isoTOP-ABPP experiments performed in cell lysates (in vitro); endogenous in cells; host or cells: MDA-MB-231 soluble lysate
T1 sequence (O95628 1-575): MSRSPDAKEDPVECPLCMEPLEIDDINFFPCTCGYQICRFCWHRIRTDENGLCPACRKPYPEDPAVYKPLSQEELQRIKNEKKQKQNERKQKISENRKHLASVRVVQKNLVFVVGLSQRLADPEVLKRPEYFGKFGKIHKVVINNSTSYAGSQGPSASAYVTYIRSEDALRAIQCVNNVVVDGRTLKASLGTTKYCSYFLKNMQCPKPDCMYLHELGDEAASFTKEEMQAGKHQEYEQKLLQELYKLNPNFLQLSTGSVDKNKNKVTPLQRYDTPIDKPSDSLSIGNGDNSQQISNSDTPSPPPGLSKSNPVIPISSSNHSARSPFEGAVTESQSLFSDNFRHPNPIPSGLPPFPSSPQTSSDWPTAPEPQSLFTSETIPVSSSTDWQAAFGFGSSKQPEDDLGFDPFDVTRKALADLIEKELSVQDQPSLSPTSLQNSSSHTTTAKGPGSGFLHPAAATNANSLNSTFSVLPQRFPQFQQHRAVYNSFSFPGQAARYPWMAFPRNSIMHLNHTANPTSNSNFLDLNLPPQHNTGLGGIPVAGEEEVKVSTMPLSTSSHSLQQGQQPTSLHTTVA
How it was run: (§1)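 Cell lysate treated in vitro with fragments (50 μM activated esters, 100 μM guanidinylating agents) or DMSO, labelled 1 h at ambient temperature with 0.1 mM STP-alkyne, CuAAC-tagged with light/heavy TEV tags, analysed by MS. R = DMSO/compound MS1 peak-area ratio; lysines with R≥4 called liganded.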

[2] = target: T2, EEF2 Elongation factor 2 (Homo sapiens, UniProt P13639); settings: for isoTOP-ABPP reactivity ratio at lysine P13639_K235 / isoTOP-ABPP reactivity ratio at lysine P13639_K318 / isoTOP-ABPP ratio (R) at liganded lysine P13639_K235 / isoTOP-ABPP ratio (R) at liganded lysine P13639_K318 / R value (DMSO/fragment) for probe 1 labeling: 50 uM, in vitro; for isoTOP-ABPP reactivity ratio at lysine P13639_K235 / isoTOP-ABPP reactivity ratio at lysine P13639_K318 / R value (DMSO/fragment) for probe 1 labeling: 231 sol; for isoTOP-ABPP ratio (R) at liganded lysine P13639_K235 / isoTOP-ABPP ratio (R) at liganded lysine P13639_K318: sol, 231
T2 construct: isoTOP-ABPP experiments performed in cell lysates (in vitro); endogenous in cells; host or cells: soluble proteome of human cancer cell lines (MDA-MB-231; Ramos and Jurkat also prepared)
How it was run: as §1

[3] = target: T3, ENOPH1 Enolase-phosphatase E1 (Homo sapiens, UniProt Q9UHY7); settings: for isoTOP-ABPP ratio (R) at liganded lysine Q9UHY7_K111: sol, 231
T3 construct: endogenous in cells; host or cells: MDA-MB-231 (soluble fraction of lysate)
How it was run: as §1

T3 sequence (Q9UHY7 whole entry): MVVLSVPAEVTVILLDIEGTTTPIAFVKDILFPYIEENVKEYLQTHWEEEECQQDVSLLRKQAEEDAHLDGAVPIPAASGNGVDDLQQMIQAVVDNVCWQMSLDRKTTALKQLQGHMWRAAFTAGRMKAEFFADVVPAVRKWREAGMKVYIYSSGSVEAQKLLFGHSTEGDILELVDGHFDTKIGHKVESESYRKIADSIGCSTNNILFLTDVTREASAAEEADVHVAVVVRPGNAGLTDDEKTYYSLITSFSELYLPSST

COc1cc(CCC(=O)Oc2ccc([N+](=O)[O-])cc2[N+](=O)[O-])cc(OC)c1OC [fragment 33, 2,4-Dinitrophenyl 3-(3,4,5-trimethoxyphenyl)propanoate]
isoTOP-ABPP reactivity ratio at lysine O95628_K134 ([1]; 50 uM, 231 sol, in vitro): 1.4 | isoTOP-ABPP reactivity ratio at lysine P13639_K235 [2]: 1.0 | isoTOP-ABPP reactivity ratio at lysine P13639_K318 [2]: 0.9 | isoTOP-ABPP reactivity ratio at lysine Q9UHY7_K111 ([3]; 50 uM, 231 sol, in vitro): 0.9

O=C(Oc1ccc([N+](=O)[O-])cc1[N+](=O)[O-])C(c1ccccc1)c1ccccc1 [fragment 30, 2,4-Dinitrophenyl 2,2-diphenylacetate]
isoTOP-ABPP reactivity ratio at lysine O95628_K134 ([1]; 50 uM, 231 sol, in vitro): 1.2 | isoTOP-ABPP reactivity ratio at lysine P13639_K235 [2]: 1.4 | isoTOP-ABPP reactivity ratio at lysine P13639_K318 [2]: 1.4 | isoTOP-ABPP reactivity ratio at lysine Q9UHY7_K111 ([3]; 50 uM, 231 sol, in vitro): 0.8

O=C(Oc1ccc([N+](=O)[O-])cc1[N+](=O)[O-])c1cc(C(F)(F)F)cc(C(F)(F)F)c1 [fragment 31, 2,4-Dinitrophenyl 3,5-bis(trifluoromethyl)benzoate]
isoTOP-ABPP reactivity ratio at lysine O95628_K134 ([1]; 50 uM, 231 sol, in vitro): 4.3 | isoTOP-ABPP reactivity ratio at lysine P13639_K235 [2]: 1.1 | isoTOP-ABPP reactivity ratio at lysine P13639_K318 [2]: 1.2

O=C(CCc1cn(-c2ccccc2)nc1-c1ccccc1)Oc1ccc([N+](=O)[O-])cc1[N+](=O)[O-] [fragment 29, 2,4-Dinitrophenyl 3-(1,3-diphenyl-1H-pyrazol-4-yl)propanoate]
isoTOP-ABPP reactivity ratio at lysine O95628_K134 ([1]; 50 uM, 231 sol, in vitro): 1.1 | isoTOP-ABPP reactivity ratio at lysine P13639_K235 [2]: 1.0 | isoTOP-ABPP reactivity ratio at lysine P13639_K318 [2]: 0.9 | isoTOP-ABPP reactivity ratio at lysine Q9UHY7_K111 ([3]; 50 uM, 231 sol, in vitro): 0.8

CC(=O)Oc1ccc([N+](=O)[O-])cc1[N+](=O)[O-] [fragment 43, 2,4-Dinitrophenyl acetate]
isoTOP-ABPP ratio (R) at liganded lysine O95628_K134 ([1]; 50 uM, in vitro): 1.3 | isoTOP-ABPP ratio (R) at liganded lysine P13639_K235 [2]: 1.1 | isoTOP-ABPP ratio (R) at liganded lysine P13639_K318 [2]: 1.2 | isoTOP-ABPP ratio (R) at liganded lysine Q9UHY7_K111 ([3]; 50 uM, in vitro): 0.9

O=C(Oc1c(F)c(F)cc(F)c1F)c1cc(C(F)(F)F)cc(C(F)(F)F)c1 [fragment 48, 2,3,5,6-Tetrafluorophenyl 3,5-bis(trifluoromethyl)benzoate]
isoTOP-ABPP ratio, lysine P13639_K235 ([2]; 50 uM_231_sol_in vitro): 1.2 | isoTOP-ABPP ratio, lysine P13639_K318 ([2]; 50 uM_231_sol_in vitro): 1.1 | isoTOP-ABPP ratio, lysine Q9UHY7_K111 ([3]; 50 uM_231_sol_in vitro): 0.9

CC(C)(C)OC(=O)N=C(NC(=O)OC(C)(C)C)n1cccn1 [fragment 50, reference compound]
isoTOP-ABPP ratio, lysine O95628_K134 ([1]; 100 uM_231_sol_in vitro): 1.7 | isoTOP-ABPP ratio, lysine P13639_K235 ([2]; 100 uM_231_sol_in vitro): 7.5 | isoTOP-ABPP ratio, lysine P13639_K318 ([2]; 100 uM_231_sol_in vitro): 1.8 | isoTOP-ABPP ratio, lysine Q9UHY7_K111 ([3]; 100 uM_231_sol_in vitro): 15.1

N#Cc1ccc(C(=O)Oc2ccc([N+](=O)[O-])cc2[N+](=O)[O-])cc1 [fragment 44, 2,4-Dinitrophenyl 4-cyanobenzoate]
isoTOP-ABPP ratio, lysine O95628_K134 ([1]; 50 uM_231_sol_in vitro): 2.0 | isoTOP-ABPP ratio, lysine P13639_K235 ([2]; 50 uM_231_sol_in vitro): 1.0 | isoTOP-ABPP ratio, lysine P13639_K318 ([2]; 50 uM_231_sol_in vitro): 1.1 | isoTOP-ABPP ratio, lysine Q9UHY7_K111 ([3]; 50 uM_231_sol_in vitro): 0.9

O=C(Oc1ccc([N+](=O)[O-])cc1[N+](=O)[O-])c1ccc(-c2ccccc2)cc1 [fragment 37, 2,4-Dinitrophenyl [1,1′-biphenyl]-4-carboxylate]
isoTOP-ABPP ratio (R) at liganded lysine O95628_K134 ([1]; 50 uM, in vitro): 1.0 | isoTOP-ABPP ratio (R) at liganded lysine P13639_K235 [2]: 1.0 | isoTOP-ABPP ratio (R) at liganded lysine P13639_K318 [2]: 1.0 | isoTOP-ABPP ratio (R) at liganded lysine Q9UHY7_K111 ([3]; 50 uM, in vitro): 0.9

O=C(CCc1ccc2c(c1)OCO2)Oc1ccc([N+](=O)[O-])cc1[N+](=O)[O-] [fragment 45, 2,4-Dinitrophenyl 3-(benzo[d][1,3]dioxol-5-yl)propanoate]
isoTOP-ABPP ratio, lysine O95628_K134 ([1]; 50 uM_231_sol_in vitro): 2.8 | isoTOP-ABPP ratio, lysine P13639_K235 ([2]; 50 uM_231_sol_in vitro): 1.0 | isoTOP-ABPP ratio, lysine P13639_K318 ([2]; 50 uM_231_sol_in vitro): 1.0 | isoTOP-ABPP ratio, lysine Q9UHY7_K111 ([3]; 50 uM_231_sol_in vitro): 1.1

COC(=O)NC(=NC(=O)OCC1c2ccccc2-c2ccccc21)n1cccn1 [fragment 49, N-Methoxycarbonyl-N′-9-fluorenylmethoxycarbonyl-pyrazole-1-carboxamidine]
isoTOP-ABPP ratio, lysine O95628_K134 ([1]; 100 uM_231_sol_in vitro): 1.4 | isoTOP-ABPP ratio, lysine P13639_K235 ([2]; 100 uM_231_sol_in vitro): 6.2 | isoTOP-ABPP ratio, lysine P13639_K318 ([2]; 100 uM_231_sol_in vitro): 2.0 | isoTOP-ABPP ratio, lysine Q9UHY7_K111 ([3]; 100 uM_231_sol_in vitro): 20.0

O=C(Oc1c(F)c(F)c(F)c(F)c1F)C(c1ccccc1)c1ccccc1 [fragment 20, Pentafluorophenyl 2,2-diphenylacetate]
R value (DMSO/fragment) for probe 1 labeling ([1]; O95628_K134, 50 uM, 231 sol, in vitro): 0.9 | R value (DMSO/fragment) for probe 1 labeling ([2]; P13639_K235): 1.1 | R value (DMSO/fragment) for probe 1 labeling ([2]; P13639_K318): 1.1 | R value (DMSO/fragment) for probe 1 labeling ([3]; Q9UHY7_K111, 50 uM, 231 sol, in vitro): 1.0
